Values after ≈ are worked out from the molar mass of the structure shown.
Tests used:
Format in all cases: functional
[1] = system: Penicillium; experiment: Antimicrobial activity against Penicillium wild strain assessed as diameter of growth inhibition zone at 250 ug/ml after 48-96 hr by agar cup diffusion method; details: read-out: DIZ
[2] = system: Penicillium; experiment: Antimicrobial activity against Penicillium wild strain assessed as diameter of growth inhibition zone at 100 ug/ml after 48-96 hr by agar cup diffusion method; details: read-out: DIZ
[3] = system: Trichophyton rubrum; experiment: Antimicrobial activity against Trichophyton rubrum MTCC 296 assessed as diameter of growth inhibition zone at 100 ug/ml after 48-96 hr by agar cup diffusion method; details: read-out: DIZ
[4] = system: Aspergillus clavatus; experiment: Antimicrobial activity against Aspergillus clavatus MTCC 1323 assessed as diameter of growth inhibition zone at 100 ug/ml after 48-96 hr by agar cup diffusion method; details: read-out: DIZ
[5] = system: Candida albicans; experiment: Antimicrobial activity against Candida albicans MTCC 227 assessed as diameter of growth inhibition zone at 100 ug/ml after 48-96 hr by agar cup diffusion method; details: read-out: DIZ
[6] = system: Penicillium; experiment: Antimicrobial activity against Penicillium wild strain assessed as diameter of growth inhibition zone at 50 ug/ml after 48-96 hr by agar cup diffusion method; details: read-out: DIZ
[7] = system: Trichophyton rubrum; experiment: Antimicrobial activity against Trichophyton rubrum MTCC 296 assessed as diameter of growth inhibition zone at 50 ug/ml after 48-96 hr by agar cup diffusion method; details: read-out: DIZ
[8] = system: Aspergillus clavatus; experiment: Antimicrobial activity against Aspergillus clavatus MTCC 1323 assessed as diameter of growth inhibition zone at 50 ug/ml after 48-96 hr by agar cup diffusion method; details: read-out: DIZ
[9] = system: Candida albicans; experiment: Antimicrobial activity against Candida albicans MTCC 227 assessed as diameter of growth inhibition zone at 50 ug/ml after 48-96 hr by agar cup diffusion method; details: read-out: DIZ
[10] = system: Penicillium; experiment: Antimicrobial activity against Penicillium wild strain assessed as diameter of growth inhibition zone at 25 ug/ml after 48-96 hr by agar cup diffusion method; details: read-out: DIZ
[11] = system: Trichophyton rubrum; experiment: Antimicrobial activity against Trichophyton rubrum MTCC 296 assessed as diameter of growth inhibition zone at 25 ug/ml after 48-96 hr by agar cup diffusion method; details: read-out: DIZ
[12] = system: Aspergillus clavatus; experiment: Antimicrobial activity against Aspergillus clavatus MTCC 1323 assessed as diameter of growth inhibition zone at 25 ug/ml after 48-96 hr by agar cup diffusion method; details: read-out: DIZ
[13] = system: Candida albicans; experiment: Antimicrobial activity against Candida albicans MTCC 227 assessed as diameter of growth inhibition zone at 25 ug/ml after 48-96 hr by agar cup diffusion method; details: read-out: DIZ
[14] = system: Penicillium; experiment: Antimicrobial activity against Penicillium wild strain by agar cup diffusion method
[15] = system: Aspergillus clavatus; experiment: Antimicrobial activity against Aspergillus clavatus MTCC 1323 by agar cup diffusion method
[16] = system: Pseudomonas aeruginosa; experiment: Antimicrobial activity against Pseudomonas aeruginosa MTCC 1688 assessed as diameter of growth inhibition zone at 25 ug/ml after 18-24 hr by agar cup diffusion method; details: read-out: DIZ
[17] = system: Escherichia coli; experiment: Antimicrobial activity against Escherichia coli MTCC 443 assessed as diameter of growth inhibition zone at 25 ug/ml after 18-24 hr by agar cup diffusion method; details: read-out: DIZ
[18] = system: Staphylococcus aureus; experiment: Antimicrobial activity against Staphylococcus aureus MTCC 96 assessed as diameter of growth inhibition zone at 25 ug/ml after 18-24 hr by agar cup diffusion method; details: read-out: DIZ
[19] = system: Streptococcus pyogenes; experiment: Antimicrobial activity against Streptococcus pyogenes MTCC 442 assessed as diameter of growth inhibition zone at 25 ug/ml after 18-24 hr by agar cup diffusion method; details: read-out: DIZ
[20] = system: Klebsiella pneumoniae; experiment: Antimicrobial activity against Klebsiella pneumoniae MTCC 109 by agar cup diffusion method
[21] = system: Escherichia coli; experiment: Antimicrobial activity against Escherichia coli MTCC 443 by agar cup diffusion method
[22] = system: Pseudomonas aeruginosa; experiment: Antimicrobial activity against Pseudomonas aeruginosa MTCC 1688 by agar cup diffusion method
[23] = system: Staphylococcus aureus; experiment: Antimicrobial activity against Staphylococcus aureus MTCC 96 by agar cup diffusion method
[24] = system: Streptococcus pyogenes; experiment: Antimicrobial activity against Streptococcus pyogenes MTCC 442 by agar cup diffusion method
[25] = system: Trichophyton rubrum; experiment: Antimicrobial activity against Trichophyton rubrum MTCC 296 by agar cup diffusion method
[26] = system: Candida albicans; experiment: Antimicrobial activity against Candida albicans MTCC 227 by agar cup diffusion method
[27] = system: Klebsiella pneumoniae; experiment: Antimicrobial activity against Klebsiella pneumoniae MTCC 109 assessed as diameter of growth inhibition zone at 250 ug/ml after 18-24 hr by agar cup diffusion method; details: read-out: DIZ
[28] = system: Pseudomonas aeruginosa; experiment: Antimicrobial activity against Pseudomonas aeruginosa MTCC 1688 assessed as diameter of growth inhibition zone at 250 ug/ml after 18-24 hr by agar cup diffusion method; details: read-out: DIZ
[29] = system: Escherichia coli; experiment: Antimicrobial activity against Escherichia coli MTCC 443 assessed as diameter of growth inhibition zone at 250 ug/ml after 18-24 hr by agar cup diffusion method; details: read-out: DIZ
[30] = system: Staphylococcus aureus; experiment: Antimicrobial activity against Staphylococcus aureus MTCC 96 assessed as diameter of growth inhibition zone at 250 ug/ml after 18-24 hr by agar cup diffusion method; details: read-out: DIZ
[31] = system: Streptococcus pyogenes; experiment: Antimicrobial activity against Streptococcus pyogenes MTCC 442 assessed as diameter of growth inhibition zone at 250 ug/ml after 18-24 hr by agar cup diffusion method; details: read-out: DIZ
[32] = system: Klebsiella pneumoniae; experiment: Antimicrobial activity against Klebsiella pneumoniae MTCC 109 assessed as diameter of growth inhibition zone at 100 ug/ml after 18-24 hr by agar cup diffusion method; details: read-out: DIZ
[33] = system: Pseudomonas aeruginosa; experiment: Antimicrobial activity against Pseudomonas aeruginosa MTCC 1688 assessed as diameter of growth inhibition zone at 100 ug/ml after 18-24 hr by agar cup diffusion method; details: read-out: DIZ
[34] = system: Escherichia coli; experiment: Antimicrobial activity against Escherichia coli MTCC 443 assessed as diameter of growth inhibition zone at 100 ug/ml after 18-24 hr by agar cup diffusion method; details: read-out: DIZ
[35] = system: Staphylococcus aureus; experiment: Antimicrobial activity against Staphylococcus aureus MTCC 96 assessed as diameter of growth inhibition zone at 100 ug/ml after 18-24 hr by agar cup diffusion method; details: read-out: DIZ
[36] = system: Streptococcus pyogenes; experiment: Antimicrobial activity against Streptococcus pyogenes MTCC 442 assessed as diameter of growth inhibition zone at 100 ug/ml after 18-24 hr by agar cup diffusion method; details: read-out: DIZ
[37] = system: Klebsiella pneumoniae; experiment: Antimicrobial activity against Klebsiella pneumoniae MTCC 109 assessed as diameter of growth inhibition zone at 50 ug/ml after 18-24 hr by agar cup diffusion method; details: read-out: DIZ
[38] = system: Pseudomonas aeruginosa; experiment: Antimicrobial activity against Pseudomonas aeruginosa MTCC 1688 assessed as diameter of growth inhibition zone at 50 ug/ml after 18-24 hr by agar cup diffusion method; details: read-out: DIZ
[39] = system: Escherichia coli; experiment: Antimicrobial activity against Escherichia coli MTCC 443 assessed as diameter of growth inhibition zone at 50 ug/ml after 18-24 hr by agar cup diffusion method; details: read-out: DIZ
[40] = system: Staphylococcus aureus; experiment: Antimicrobial activity against Staphylococcus aureus MTCC 96 assessed as diameter of growth inhibition zone at 50 ug/ml after 18-24 hr by agar cup diffusion method; details: read-out: DIZ
[41] = system: Streptococcus pyogenes; experiment: Antimicrobial activity against Streptococcus pyogenes MTCC 442 assessed as diameter of growth inhibition zone at 50 ug/ml after 18-24 hr by agar cup diffusion method; details: read-out: DIZ
[42] = system: Klebsiella pneumoniae; experiment: Antimicrobial activity against Klebsiella pneumoniae MTCC 109 assessed as diameter of growth inhibition zone at 25 ug/ml after 18-24 hr by agar cup diffusion method; details: read-out: DIZ
[43] = system: Trichophyton rubrum; experiment: Antimicrobial activity against Trichophyton rubrum MTCC 296 assessed as diameter of growth inhibition zone at 250 ug/ml after 48-96 hr by agar cup diffusion method; details: read-out: DIZ
[44] = system: Aspergillus clavatus; experiment: Antimicrobial activity against Aspergillus clavatus MTCC 1323 assessed as diameter of growth inhibition zone at 250 ug/ml after 48-96 hr by agar cup diffusion method; details: read-out: DIZ
[45] = system: Candida albicans; experiment: Antimicrobial activity against Candida albicans MTCC 227 assessed as diameter of growth inhibition zone at 250 ug/ml after 48-96 hr by agar cup diffusion method; details: read-out: DIZ

For O=C(/C=C/c1ccccc1Cl)C1C(=O)NC(=S)NC1=O, the zone of inhibition at 250 µg/mL [1] was 22 mm, the zone of inhibition at 100 µg/mL [2] was 21 mm and the zone of inhibition at 100 µg/mL [3] was 19 mm. The zone of inhibition at 100 µg/mL [4] was 21 mm, the zone of inhibition at 100 µg/mL [5] was 22 mm and the zone of inhibition at 50 µg/mL [6] was 18 mm. It also gave a zone of inhibition at 50 µg/mL [7] of 20 mm, a zone of inhibition at 50 µg/mL [8] of 19 mm and a zone of inhibition at 50 µg/mL [9] of 22 mm. It also gave a zone of inhibition at 25 µg/mL [10] of 18 mm, a zone of inhibition at 25 µg/mL [11] of 19 mm and a zone of inhibition at 25 µg/mL [12] of 18 mm. It also gave a zone of inhibition at 25 µg/mL [13] of 21 mm, an MFC [14] of over 1000 µg/mL and an MIC [14] of over 1000 µg/mL. The MFC [15] was over 1000 µg/mL, the MIC [15] was over 1000 µg/mL and the zone of inhibition at 25 µg/mL [16] was 10 mm. For the same molecule, the zone of inhibition at 25 µg/mL [17] was 13 mm, the zone of inhibition at 25 µg/mL [18] was 10 mm and the zone of inhibition at 25 µg/mL [19] was 13 mm. The MBC [20] was 250 µg/mL (≈ 810 µM), the MIC [20] was 200 µg/mL (≈ 648 µM) and the MBC [21] was 500 µg/mL (≈ 1620 µM). The MIC [21] was 250 µg/mL (≈ 810 µM), the MBC [22] was 500 µg/mL (≈ 1620 µM) and the MIC [22] was 250 µg/mL (≈ 810 µM). It also gave an MBC [23] of 500 µg/mL (≈ 1620 µM), an MIC [23] of 250 µg/mL (≈ 810 µM) and an MBC [24] of 250 µg/mL (≈ 810 µM). For the same molecule, the MIC [24] was 250 µg/mL (≈ 810 µM), the MFC [25] was 500 µg/mL (≈ 1620 µM) and the MIC [25] was 500 µg/mL (≈ 1620 µM). For the same molecule, the MFC [26] was over 1000 µg/mL, the MIC [26] was 250 µg/mL (≈ 810 µM) and the zone of inhibition at 250 µg/mL [27] was 18 mm. The zone of inhibition at 250 µg/mL [28] was 18 mm, the zone of inhibition at 250 µg/mL [29] was 16 mm and the zone of inhibition at 250 µg/mL [30] was 18 mm. The zone of inhibition at 250 µg/mL [31] was 16 mm, the zone of inhibition at 100 µg/mL [32] was 15 mm and the zone of inhibition at 100 µg/mL [33] was 17 mm. For the same molecule, the zone of inhibition at 100 µg/mL [34] was 15 mm, the zone of inhibition at 100 µg/mL [35] was 17 mm and the zone of inhibition at 100 µg/mL [36] was 15 mm. The zone of inhibition at 50 µg/mL [37] was 13 mm, the zone of inhibition at 50 µg/mL [38] was 14 mm and the zone of inhibition at 50 µg/mL [39] was 14 mm. For the same molecule, the zone of inhibition at 50 µg/mL [40] was 14 mm, the zone of inhibition at 50 µg/mL [41] was 14 mm and the zone of inhibition at 25 µg/mL [42] was 12 mm. It also gave a zone of inhibition at 250 µg/mL [43] of 21 mm, a zone of inhibition at 250 µg/mL [44] of 22 mm and a zone of inhibition at 250 µg/mL [45] of 23 mm.
